Results published in publication PMC5982655, “Interaction of the New Monofunctional Anticancer Agent Phenanthriplatin With Transporters for Organic Cations” (Frontiers in Chemistry, 2018).

What was measured:
mOCT1 = biological target: T1, mOCT1 (Mus musculus, UniProt O08966); assay: Inhibition of ASP+ uptake in HEK 293 cells expressing mOCT1; assay type: cell-based, murine; conditions: HEK 293 mOCT1, 1 μM ASP+
T1 construct: expressed in transfected cells
T1 sequence (O08966 1-556): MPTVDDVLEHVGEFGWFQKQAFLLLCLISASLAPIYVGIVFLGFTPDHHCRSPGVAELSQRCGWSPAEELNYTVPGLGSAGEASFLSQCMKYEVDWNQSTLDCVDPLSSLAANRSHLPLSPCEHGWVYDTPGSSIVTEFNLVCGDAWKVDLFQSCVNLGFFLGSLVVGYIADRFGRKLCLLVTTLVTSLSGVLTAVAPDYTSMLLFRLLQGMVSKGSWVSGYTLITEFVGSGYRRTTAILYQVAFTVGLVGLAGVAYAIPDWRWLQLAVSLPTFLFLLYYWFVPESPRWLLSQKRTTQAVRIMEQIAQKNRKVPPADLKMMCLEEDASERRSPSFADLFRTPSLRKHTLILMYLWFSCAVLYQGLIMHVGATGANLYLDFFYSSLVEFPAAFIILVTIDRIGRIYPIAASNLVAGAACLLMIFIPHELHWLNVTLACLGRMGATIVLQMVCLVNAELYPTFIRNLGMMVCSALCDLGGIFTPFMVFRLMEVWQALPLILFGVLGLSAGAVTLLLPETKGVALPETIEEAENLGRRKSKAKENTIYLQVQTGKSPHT
Protocol: (§1) The interaction of phenanthriplatin with transporters for organic cations (OCT1-3, MATE1, and MATE2K) was investigated by measuring its effects on the uptake of the fluorescent organic cation 4-(4-dimethylamino)styryl-N-methylpyridinium (ASP^+). Microfluorometric measurements of ASP^+ uptake were performed with a fluorescence plate reader (Infinity 200, Tecan, Crailsheim, Germany; excitation at 465 nm, emission at 590 nm) as described previously for cultured HEK 293 cells (Wilde et al., [2009]). Before measurements, the culture medium in the wells of the 96 well microtiter plate containing HEK 293 cells was replaced by a HCO3- -free Ringer-like solution containing (in mM) NaCl 145, K2HPO4 1.6, KH2PO4 0.4, D-glucose 5, MgCl2 1, calcium gluconate 1.3, and pH adjusted to 7.4. Fluorescence was measured dynamically at 37°C in each well before and after ASP^+ addition to HCO3- -free Ringer-like solution, alone or together with increasing phenanthriplatin concentrations, and plotted versus time. ASP^+ (final concentration 1 or 10 μM for experiments with OCTs or MATEs, respectively) was added after the third sampling interval. Emission from the complete area of the well bottom was analyzed four times and averaged for each well. […] Background fluorescence was measured for each plate in wells with identical solutions containing no cells and subtracted from each well containing cells. […]

hOCT2 = biological target: T2, hOCT2 (Homo sapiens, UniProt O15244); assay: Inhibition of ASP+ uptake in HEK 293 cells expressing hOCT2; assay type: cell-based; conditions: HEK 293 hOCT2, 1 μM ASP+
T2 construct: expressed in transfected cells; gift of H. Koepsell
T2 sequence (O15244 1-555): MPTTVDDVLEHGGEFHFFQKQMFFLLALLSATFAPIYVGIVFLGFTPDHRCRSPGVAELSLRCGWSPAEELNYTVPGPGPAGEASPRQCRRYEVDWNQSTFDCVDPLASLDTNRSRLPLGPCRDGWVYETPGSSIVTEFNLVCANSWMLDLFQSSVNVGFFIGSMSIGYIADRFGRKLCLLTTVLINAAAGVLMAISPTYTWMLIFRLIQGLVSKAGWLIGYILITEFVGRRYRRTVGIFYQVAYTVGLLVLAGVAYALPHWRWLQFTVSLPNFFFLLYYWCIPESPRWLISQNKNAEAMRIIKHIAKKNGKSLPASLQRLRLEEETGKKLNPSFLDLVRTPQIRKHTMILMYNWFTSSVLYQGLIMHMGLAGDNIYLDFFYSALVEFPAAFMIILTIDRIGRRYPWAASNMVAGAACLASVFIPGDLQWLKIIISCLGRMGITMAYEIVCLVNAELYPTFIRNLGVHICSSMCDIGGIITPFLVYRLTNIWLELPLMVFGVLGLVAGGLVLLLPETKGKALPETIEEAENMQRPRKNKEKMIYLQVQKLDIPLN
Protocol: The interaction of phenanthriplatin with transporters for organic cations (OCT1-3, MATE1, and MATE2K) was investigated by measuring its effects on the uptake of the fluorescent organic cation 4-(4-dimethylamino)styryl-N-methylpyridinium (ASP^+). Microfluorometric measurements of ASP^+ uptake were performed with a fluorescence plate reader (Infinity 200, Tecan, Crailsheim, Germany; excitation at 465 nm, emission at 590 nm) as described previously for cultured HEK 293 cells (Wilde et al., [2009]). Before measurements, the culture medium in the wells of the 96 well microtiter plate containing HEK 293 cells was replaced by a HCO3- -free Ringer-like solution containing (in mM) NaCl 145, K2HPO4 1.6, KH2PO4 0.4, D-glucose 5, MgCl2 1, calcium gluconate 1.3, and pH adjusted to 7.4. Fluorescence was measured dynamically at 37°C in each well before and after ASP^+ addition to HCO3- -free Ringer-like solution, alone or together with increasing phenanthriplatin concentrations, and plotted versus time. ASP^+ (final concentration 1 or 10 μM for experiments with OCTs or MATEs, respectively) was added after the third sampling interval. Emission from the complete area of the well bottom was analyzed four times and averaged for each well. […] Background fluorescence was measured for each plate in wells with identical solutions containing no cells and subtracted from each well containing cells. Experiments were performed with cells from one passage of the same day with controls and test replicates in the same plate.
Data are presented as mean values ± SEM, with (n) referring to the number of wells. IC50 values defined as the concentration of platinum agent required to inhibit uptake of ASP^+ by 50% and EC50 values used to assess cell viability were obtained by sigmoidal concentration-response curve fitting using GraphPad Prism, Version 5.3 (GraphPad Software, San Diego, USA). […] For multiple comparisons, ANOVA with Bonferroni post-test was used. A P-value < 0.05 was considered statistically significant.

hOCT3 = biological target: T3, hOCT3 (Homo sapiens, UniProt O75751); assay: Inhibition of ASP+ uptake in HEK 293 cells expressing hOCT3; assay type: cell-based; conditions: HEK 293 hOCT3, 1 μM ASP+
T3 construct: expressed in transfected cells; gift of H. Koepsell
T3 sequence (O75751 1-556): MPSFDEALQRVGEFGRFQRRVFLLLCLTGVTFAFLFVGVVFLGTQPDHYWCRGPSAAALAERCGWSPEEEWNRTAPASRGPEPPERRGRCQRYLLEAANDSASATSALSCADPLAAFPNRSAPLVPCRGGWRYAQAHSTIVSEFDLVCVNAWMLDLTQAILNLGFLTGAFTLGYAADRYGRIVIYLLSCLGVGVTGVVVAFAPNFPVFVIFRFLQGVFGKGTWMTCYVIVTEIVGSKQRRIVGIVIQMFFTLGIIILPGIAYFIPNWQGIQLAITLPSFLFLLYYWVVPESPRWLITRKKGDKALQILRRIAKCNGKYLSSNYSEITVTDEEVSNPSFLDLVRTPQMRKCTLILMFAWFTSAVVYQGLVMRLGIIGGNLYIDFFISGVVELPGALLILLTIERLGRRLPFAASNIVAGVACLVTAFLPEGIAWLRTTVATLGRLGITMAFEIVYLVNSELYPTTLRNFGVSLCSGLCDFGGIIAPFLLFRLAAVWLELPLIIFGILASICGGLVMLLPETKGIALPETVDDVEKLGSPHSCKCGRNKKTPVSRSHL
Protocol: as §1

- IC50 (mOCT1): 17 µM
- logIC50 (logEC50) ± SEM for inhibition of ASP+ uptake (mOCT1): −4.77 ± 0.22
- IC50 (hOCT2): 2 µM
- logIC50 (logEC50) ± SEM for inhibition of ASP+ uptake (hOCT2): −5.67 ± 0.10
- IC50 (hOCT3): 21 µM
- logIC50 (logEC50) ± SEM for inhibition of ASP+ uptake (hOCT3): −4.67 ± 0.07
SMILES: N.N.[Cl][Pt+].c1ccc2c(c1)cnc1ccccc12 [phenanthriplatin, cis-[Pt(NH3)2Cl(phenanthridine)]^+]
